Measured values taken from ChEMBL document CHEMBL1944535, “Synthesis, in vitro binding studies and docking of long-chain arylpiperazine nitroquipazine analogues, as potential serotonin transporter inhibitors” (Eur J Med Chem, 2012).

Key:
[1] = target: Sodium-dependent serotonin transporter (Rattus norvegicus, UniProt P31652); assay: Displacement of [3H]-Citalopram from SERT in rat cerebral cortex homogenates after 1 hr by liquid scintillation counter; format: tissue-based
[2] = target: Sodium-dependent serotonin transporter (Homo sapiens, UniProt P31645); assay: Displacement of [3H]-5HT from human SERT
Sequence of Sodium-dependent serotonin transporter (Homo sapiens, UniProt P31645) (P31645 whole entry): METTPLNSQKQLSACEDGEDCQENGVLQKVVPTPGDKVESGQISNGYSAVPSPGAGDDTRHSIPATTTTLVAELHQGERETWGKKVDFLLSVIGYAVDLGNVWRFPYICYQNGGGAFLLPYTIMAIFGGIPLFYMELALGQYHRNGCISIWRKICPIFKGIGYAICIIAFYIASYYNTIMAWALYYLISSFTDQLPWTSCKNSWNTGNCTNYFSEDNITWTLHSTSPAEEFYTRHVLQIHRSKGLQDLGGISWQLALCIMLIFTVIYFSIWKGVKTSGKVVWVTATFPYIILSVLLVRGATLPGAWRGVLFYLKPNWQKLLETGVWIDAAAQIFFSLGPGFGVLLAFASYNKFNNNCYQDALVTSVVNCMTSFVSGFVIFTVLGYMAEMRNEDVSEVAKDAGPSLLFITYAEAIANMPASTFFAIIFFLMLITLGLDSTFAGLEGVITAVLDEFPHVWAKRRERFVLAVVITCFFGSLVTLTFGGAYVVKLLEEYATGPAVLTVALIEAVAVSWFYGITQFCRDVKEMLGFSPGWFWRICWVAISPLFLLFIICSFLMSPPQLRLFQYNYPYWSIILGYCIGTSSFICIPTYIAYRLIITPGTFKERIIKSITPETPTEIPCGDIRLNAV

Sequence of Sodium-dependent serotonin transporter (Rattus norvegicus, UniProt P31652) (P31652 whole entry): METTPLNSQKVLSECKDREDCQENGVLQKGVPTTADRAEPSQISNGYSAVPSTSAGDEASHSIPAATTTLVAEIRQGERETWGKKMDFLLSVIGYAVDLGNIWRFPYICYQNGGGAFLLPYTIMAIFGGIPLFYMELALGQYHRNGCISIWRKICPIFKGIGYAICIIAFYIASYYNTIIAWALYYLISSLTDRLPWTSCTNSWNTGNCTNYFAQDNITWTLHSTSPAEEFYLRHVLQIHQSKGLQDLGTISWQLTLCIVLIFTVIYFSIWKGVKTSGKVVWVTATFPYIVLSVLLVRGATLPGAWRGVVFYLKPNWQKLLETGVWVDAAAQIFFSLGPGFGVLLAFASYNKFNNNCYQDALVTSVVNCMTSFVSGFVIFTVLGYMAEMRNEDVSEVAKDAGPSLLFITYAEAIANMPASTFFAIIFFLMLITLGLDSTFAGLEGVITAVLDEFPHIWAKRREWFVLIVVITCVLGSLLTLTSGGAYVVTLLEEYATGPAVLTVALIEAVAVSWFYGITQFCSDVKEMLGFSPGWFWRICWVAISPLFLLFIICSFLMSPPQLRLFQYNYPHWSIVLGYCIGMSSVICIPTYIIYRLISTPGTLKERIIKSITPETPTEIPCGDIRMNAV

IC50 [1] | Compound | Ki [2]
4130 nM | O=C1c2ccccc2C(=O)N1CCCCN1CCN(c2ccc3cc([N+](=O)[O-])ccc3n2)CC1 | –
18800 nM | CC(=O)Nc1ccc2nc(N3CCN(CCCCN4C(=O)CC5(CCCC5)CC4=O)CC3)ccc2c1 | –
– | O=[N+]([O-])c1ccc2nc(N3CCNCC3)ccc2c1 [6-NITROQUIPAZINE] | 0.17 nM
921 nM | O=C1CCCC(=O)N1CCCCN1CCN(c2ccc3cc([N+](=O)[O-])ccc3n2)CC1 | –
616 nM | CC1(C)CC(=O)N(CCCCN2CCN(c3ccc4cc([N+](=O)[O-])ccc4n3)CC2)C(=O)C1 | –
2800 nM | CC1(C)CC(=O)N(CCCCN2CCN(c3ccc4c(Cl)cccc4n3)CC2)C(=O)C1 | –
268 nM | CC1CN(c2ccc3cc([N+](=O)[O-])ccc3n2)CCN1CCCCN1C(=O)CCCC1=O (stereo unspecified) | –
171 nM | CC1CN(c2ccc3ccccc3n2)CCN1CCCCN1C(=O)CC(C)(C)CC1=O (stereo unspecified) | –
1350 nM | CC1CN(c2ccc3cc([N+](=O)[O-])ccc3n2)CCN1CCCCN1C(=O)CC2(CCCC2)CC1=O (stereo unspecified) | –
25900 nM | O=C1CC2(CCCC2)CC(=O)N1CCCCN1CCN(c2ccc3cc([N+](=O)[O-])ccc3n2)CC1 | –
807 nM | CC1CN(c2ccc3cc([N+](=O)[O-])ccc3n2)CCN1CCCCN1C(=O)CC(C)(C)CC1=O (stereo unspecified) | –
